Four molecules from patent US12162901B2, “N-acetylated sialic acids and related sialosides” (priority 2016, dated 2024) can be followed below.

One test deals with BJA-B K20 cells. The test is described as follows: Feeding of free sialic acids to BJA-B K20 cells, PToV probes, flow cytometry. The conditions noted are these: 1 mM, three days; PToV with active esterase. Type of test: cell-based, human. (A flow cytometer gives signals particle by particle.)
The target in test [1] is bovine coronavirus hemagglutinin-esterase (BCoV-Mebus-Fc, esterase inactivated) (Bovine coronavirus, UniProt P15776, S40A). The test is described as follows: Sialoglycan microarray binding of BCoV-Mebus-Fc (esterase inactive). The note with it: without esterase treatment (FIG. 3A).

On to `CC(=O)N[C@H]1[C@H]([C@H](O)[C@H](O)COC(C)=O)OC(O)(C(=O)O)C[C@@H]1O` (stereo partly shown) [Neu5,9Ac2, 9-O-acetyl-N-acetylneuraminic acid], for which the “resistance of cell surface sialic acid to virus-hemagglutinin-esterase activity” value in the test on BJA-B K20 cells is “only Neu5Ac9NAc-fed ones were resistant”.
Take `CC(=O)N[C@H]1[C@H]([C@H](O)[C@H](O)COC(C)=O)O[C@@](O[C@H]2[C@@H](O)[C@@H](CO)O[C@@H](O[C@H]3[C@H](O)[C@@H](O)[C@H](OCCCN)O[C@@H]3CO)[C@@H]2O)(C(=O)O)C[C@@H]1O` [Neu5,9Ac2α3Galβ4GlcβProNH2]: in test [1], the “binding of BCoV on glycan microarray” value is “prefer binding”.
`CC(=O)NC[C@@H](O)[C@@H](O)[C@@H]1OC(O)(C(=O)O)C[C@H](O)[C@H]1NC(C)=O` (stereo partly drawn) [Neu5Ac9NAc, 5,9-Diacetamido-3,5,9-Trideoxy-D-glycero-D-galacto-2-nonulopyranosylonic Acid]: in the test on BJA-B K20 cells, the “resistance of cell surface sialic acid to virus-hemagglutinin-esterase activity” value was “resistant to virus-hemagglutinin-esterase activity”.
`CC(=O)NC[C@@H](O)[C@@H](O)[C@@H]1O[C@@](O[C@H]2[C@@H](O)[C@@H](CO)O[C@@H](O[C@H]3[C@H](O)[C@@H](O)[C@H](OCCCN)O[C@@H]3CO)[C@@H]2O)(C(=O)O)C[C@H](O)[C@H]1NC(C)=O` [Neu5Ac9NAcα3Galβ4GlcβProNH2, 3-Aminopropyl O-(5,9-Diacetamido-3,5,9-trideoxy-D-glycero-α-D-galacto-2-nonulopyranosylonic acid)-(2→3)-O-β-D-galactopyranosyl-(1→4)-β-D-glucopyranoside]: the “binding of BCoV on glycan microarray” value in test [1] is reported as “prefer binding”.
